Measured values from patent US20240199676A1, “ANTIVIRAL COMPOUNDS AND METHODS OF MAKING AND USING THE SAME” (Gilead Sciences, Inc., priority 2022, published 2024).

Key:
[1] = system: Respiratory syncytial virus recombinant with luciferase (RSV-Luc5) in NHBE cells; experiment: NHBE RSV-Luc5 384-well Assay (RSV FLUC NHBE 384 V2, Ex. W); type: cell-based; details: human respiratory syncytial virus, 72 h, read-out: EC50 RSV FLUC NHBE 384 V2 (per Ex. W)
Excerpt: Example W: NHBE RSV-Luc5 384-well Assay (EC50 RSVFLUC NHBE-384)
Normal Human Bronchial Epithelial (NHBE) cells were purchased from Lonza (Walkersville, MD Cat #CC2540) and maintained in BEGM Bronchial Epithelial Cell Growth Medium BulletKit (Lonza CC-3170).
Cells were thawed, expanded, and were used for experiments at passage 2. Respiratory syncytial virus recombinant with luciferase (RSV-Luc5) (≥1×10^7 Infectious Units/mL (IU/mL) determined by TCID50) was purchased from Microbiologics (Saint Cloud, MN). Viral replication was determined in NHBE cells in the following manner.
(§1) Compounds are prepared in 100% DMSO in 384-well polypropylene plates (Greiner, Monroe, NC, Cat #784201) with 8 compounds per plate in grouped replicates of 4 at 10 serially diluted concentrations (1:3). The serially diluted compounds were transferred to low dead volume Echo plates (Labcyte, Sunnyvale, CA, Cat #LP-0200).
The test compounds were spotted to 384-well assay plates (Greiner, Monroe, NC, Cat#781091) at 200 nL per well using an Echo acoustic dispenser (Labcyte, Sunnyvale, CA). NHBE cells were harvested and suspended in BEGM Bronchial Epithelial Cell Growth Medium BulletKit and seeded to the pre-spotted assay plates at 5,000 cells per well in 30 μL. RSV-Luc5 virus was diluted in BEGM Bronchial Epithelial Cell Growth Medium BulletKit at 500,000 Infectious Units (IU) per mL and 10 μL per well was added to the assay plates containing cells and compounds, for an MOI of 1. The assay plates were incubated for 3 days at 37° C. and 5% CO2. At the end of incubation, One-Glo reagent (Promega, Madison, WI, Cat #E6120) was prepared. The assay plates and One-Glo reagent were equilibrated to room temperature for at least 15 minutes. 40 μL per well of One-Glo reagent was added and the plates were incubated at room temperature for 15 minutes before reading the luminescence signal on an EnVision multimode plate reader (Perkin Elmer, Waltham, MA). Remdesivir was used as positive control and DMSO was used as negative control. Values were normalized to the positive and negative controls (as 0% and 100% replication, respectively) and data was fitted using non-linear regression analysis by Gilead's dose response tool. The EC50 value for each compound was defined as the concentration reducing the viral replication by 50%.

[2] = system: Human Rhinovirus 16 (HRV16) in H1-HeLa cells; experiment: H1-HeLa HRV-CTG 384-well Assay (Ex. Y), HRV16; type: cell-based; details: Rhinovirus A, 96 h; H1-HeLa cells, HRV16 MOI 0.25, 4 days, Celltiter-Glo; read-out: EC50 H1-HeLa_HRV16_HRV-CTG 384-well Assay (per Ex. Y)
Excerpt: Example Y: H1-HeLa HRV-CTG 384-well Assay
H1-Hela cell line (ATCC, Manassas, VA, Cat #CRL-1958) was maintained in Dulbecco's […] (DMEM) (Corning, New York, NY, Cat #15-018CM) supplemented with 10% fetal bovine serum (FBS) (Hyclone, Logan, UT, Cat #SH30071-03), and 1× Penicillin-Streptomycin-L-Glutamine (Corning, New York, NY, Cat #30-009-CI). Cells were passaged 2 times per week to maintain sub-confluent densities and were used for experiments at passage 5-30. The Human Rhinovirus 1B (HRV1B) (ATCC, Manassas, VA, Cat #VR-1645) , Human Rhinovirus 14 (HRV14) (ATCC, Manassas, VA, Cat #VR-284), and Human Rhinovirus 16 (HRV16) (ATCC, Manassas, VA, Cat #BR-283) was obtained through ATCC. Viral infection was monitored by determining viability of H1-HeLa cells as described below.
as §1, with “Test molecules” for “Compounds”
The test compounds were spotted to 384-well assay plates (Greiner, Monroe, NC, Cat#781091) at 200 nL per well using an Echo acoustic dispenser (Labcyte, Sunnyvale, CA). H1-HeLa cells were harvested and suspended in DMEM (supplemented with 2% FBS and 1× Penicillin-Streptomycin-L-Glutamine) and seeded to the pre-spotted assay plates at 5,000 cells per well in 30 μL. HRV1B, HRV14, and HRV16 was diluted in DMEM (supplemented with 2% FBS and 1× Penicillin-Streptomycin-L-Glutamine) at 97.1 million Infectious Units (IU) per mL, 151 million IU per mL and 221 million IU per mL respectively. 10 μL of virus per well was added to the assay plates containing cells and compounds, for an MOI of 0.5, 1.0, and 0.25 respectively. The assay plates were incubated for 4 days at 37° C. and 5% CO2. At the end of incubation, Celltiter-Glo (Promega, Madison, WI, Cat #(Ga7573) was prepared. The assay plates and Celltiter-Glo reagent were equilibrated to room temperature for at least 15 minutes. 40 μL per well of Celltiter-Glo reagent was added and the plates were incubated at room temperature for 15 minutes before reading the luminescence signal on an EnVision multimode plate reader (Perkin Elmer, Waltham, MA). Rupintrivir was used as positive control and DMSO was used as negative control. Values were normalized to the positive and negative controls (as 0% and 100% replication, respectively) and data was fitted using non-linear regression analysis by Gilead's dose response tool. The EC50 value for each compound was defined as the concentration reducing viral replication by 50%.

| SMILES | EC50 [1] | EC50 [2] |
| --- | --- | --- |
| N#C[C@]1(COC(=O)C2CCCC2)O[C@@H](c2ccc3c(N)ncnn23)[C@H](O)[C@@H]1O [Compound 18, ((2R,3S,4R,5S)-5-(4-aminopyrrolo[2,1-f][1,2,4]triazin-7-yl)-2-cyano-3,4-dihydroxytetrahydrofuran-2-yl)methyl cyclopentanecarboxylate] | 8.71 µM | 8.01 µM |
| N#C[C@]1(COC(=O)C2CCCCC2)O[C@@H](c2ccc3c(N)ncnn23)[C@H](O)[C@@H]1O [Compound 19, ((2R,3S,4R,5S)-5-(4-aminopyrrolo[2,1-f][1,2,4]triazin-7-yl)-2-cyano-3,4-dihydroxytetrahydrofuran-2-yl)methyl cyclohexanecarboxylate] | 10.9 µM | 9.23 µM |
| CC(C)C(=O)OC[C@@]1(C#N)O[C@@H](c2ccc3c(N)ncnn23)[C@H](OC(=O)C(C)C)[C@@H]1OC(=O)C(C)C [Compound 20, (2R,3S,4S,5S)-5-(4-aminopyrrolo[2,1-f][1,2,4]triazin-7-yl)-2-cyano-2-((isobutyryloxy)methyl)tetrahydrofuran-3,4-diyl bis(2-methylpropanoate)] | 10.4 µM | 50 µM |
| CC(C)C(=O)O[C@H]1[C@H](c2ccc3c(N)ncnn23)O[C@](C#N)(COC(=O)c2ccccc2)[C@H]1O [Compound 22, ((2R,3S,4R,5S)-5-(4-aminopyrrolo[2,1-f][1,2,4]triazin-7-yl)-2-cyano-3-hydroxy-4-(isobutyryloxy)tetrahydrofuran-2-yl)methyl benzoate] | 11.3 µM | 33.1 µM |
| CC(=O)OC[C@@]1(C#N)O[C@@H](c2ccc3c(NC(=O)C(C)C)ncnn23)[C@H](O)[C@@H]1O [Compound 23, ((2R,3S,4R,5S)-2-cyano-3,4-dihydroxy-5-(4-isobutyramidopyrrolo[2,1-f][1,2,4]triazin-7-yl)tetrahydrofuran-2-yl)methyl acetate] | 14.9 µM | 50 µM |
| CC1(C(=O)OC[C@@]2(C#N)O[C@@H](c3ccc4c(N)ncnn34)[C@H](O)[C@@H]2O)CCC1 [Compound 24, ((2R,3S,4R,5S)-5-(4-aminopyrrolo[2,1-f][1,2,4]triazin-7-yl)-2-cyano-3,4-dihydroxytetrahydrofuran-2-yl)methyl 1-methylcyclobutane-1-carboxylate] | 10.8 µM | 8.9 µM |
| N#C[C@]1(COC(=O)[C@H]2CCC(=O)O2)O[C@@H](c2ccc3c(N)ncnn23)[C@H](O)[C@@H]1O [Compound 25, ((2R,3S,4R,5S)-5-(4-aminopyrrolo[2,1-f][1,2,4]triazin-7-yl)-2-cyano-3,4-dihydroxytetrahydrofuran-2-yl)methyl (R)-5-oxotetrahydrofuran-2-carboxylate] | 11.7 µM | 8.31 µM |
| CC(C)(C)CC(=O)Nc1ncnn2c([C@@H]3O[C@](C#N)(COC(=O)CC(C)(C)C)[C@@H](O)[C@H]3O)ccc12 [Compound 26, ((2R,3S,4R,5S)-2-cyano-5-(4-(3,3-dimethylbutanamido)pyrrolo[2,1-f][1,2,4]triazin-7-yl)-3,4-dihydroxytetrahydrofuran-2-yl)methyl 3,3-dimethylbutanoate] | 26.6 µM | 50 µM |
| CCC(C)(C)CC(=O)OC[C@@]1(C#N)O[C@@H](c2ccc3c(N)ncnn23)[C@H](O)[C@@H]1O [Compound 27, ((2R,3S,4R,5S)-5-(4-aminopyrrolo[2,1-f][1,2,4]triazin-7-yl)-2-cyano-3,4-dihydroxytetrahydrofuran-2-yl)methyl 3,3-dimethylpentanoate] | 12.2 µM | 50 µM |
| CC(=O)OC[C@@]1(C#N)O[C@@H](c2ccc3c(N)ncnn23)[C@H](OC(C)=O)[C@@H]1OC(C)=O [Compound 28, (2R,3S,4S,5S)-2-(acetoxymethyl)-5-(4-aminopyrrolo[2,1-f][1,2,4]triazin-7-yl)-2-cyanotetrahydrofuran-3,4-diyl diacetate] | 24.6 µM | 23.9 µM |
| CC(C)(CF)C(=O)OC[C@@]1(C#N)O[C@@H](c2ccc3c(N)ncnn23)[C@H](O)[C@@H]1O [Compound 29, ((2R,3S,4R,5S)-5-(4-aminopyrrolo[2,1-f][1,2,4]triazin-7-yl)-2-cyano-3,4-dihydroxytetrahydrofuran-2-yl)methyl 3-fluoro-2,2-dimethylpropanoate] | 13 µM | 22.7 µM |
| CC(C)C(=O)Nc1ncnn2c([C@@H]3O[C@](C#N)(CO)[C@@H](O)[C@H]3O)ccc12 [Compound 30, N-(7-((2S,3R,4S,5R)-5-cyano-3,4-dihydroxy-5-(hydroxymethyl)tetrahydrofuran-2-yl)pyrrolo[2,1-f][1,2,4]triazin-4-yl)isobutyramide] | 38.5 µM | 50 µM |
| N#C[C@]1(COC(=O)C2CC3(CCC3)C2)O[C@@H](c2ccc3c(N)ncnn23)[C@H](O)[C@@H]1O [Compound 32, ((2R,3S,4R,5S)-5-(4-aminopyrrolo[2,1-f][1,2,4]triazin-7-yl)-2-cyano-3,4-dihydroxytetrahydrofuran-2-yl)methyl spiro[3.3]heptane-2-carboxylate] | 6.7 µM | 4.56 µM |
| CC1(CC(=O)OC[C@@]2(C#N)O[C@@H](c3ccc4c(N)ncnn34)[C@H](O)[C@@H]2O)CCC1 [Compound 33, ((2R,3S,4R,5S)-5-(4-aminopyrrolo[2,1-f][1,2,4]triazin-7-yl)-2-cyano-3,4-dihydroxytetrahydrofuran-2-yl)methyl 2-(1-methylcyclobutyl)acetate] | 50 µM | 50 µM |
| [H]/N=c1/c2ccc([C@@H]3O[C@](C#N)(CO)[C@@H](O)[C@H]3O)n2ncn1COC(=O)C(C)C [Compound 34, (7-((2S,3R,4S,5R)-5-cyano-3,4-dihydroxy-5-(hydroxymethyl)tetrahydrofuran-2-yl)-4-iminopyrrolo[2,1-f][1,2,4]triazin-3(4H)-yl)methyl isobutyrate] | 39.1 µM | 50 µM |
| CCC(C)(C)C(=O)OC[C@@]1(C#N)O[C@@H](c2ccc3c(N)ncnn23)[C@H](O)[C@@H]1O [Compound 35, ((2R,3S,4R,5S)-5-(4-aminopyrrolo[2,1-f][1,2,4]triazin-7-yl)-2-cyano-3,4-dihydroxytetrahydrofuran-2-yl)methyl 2,2-dimethylbutanoate] | 9.6 µM | 48.2 µM |
